Measured values reported in the NIST ThermoML archive (doi:10.1016/j.jct.2012.11.032).

Assay: xn = mol fraction of the nth substance listed
Details: 101 kPa, Liquid; for speed of sound: Sing-around technique in a fixed-path interferometer; for mass density: Vibrating tube method

CCCCCCCCCCCC[n+]1ccn(C)c1.[Cl-] [1-dodecyl-3-methylimidazolium chloride] + O
Details	mass density [kg/m3]	speed of sound [m/s]
283 K, x1 = 2.7e-05	999.688	–
283 K, x1 = 3e-05	999.704	–
283 K, x1 = 4.8e-05	999.71	–
283 K, x1 = 7.4e-05	999.71	–
283 K, x1 = 9.4e-05	999.705	–
283 K, x1 = 0.000109	999.71	–
283 K, x1 = 0.000129	999.718	–
283 K, x1 = 0.000145	999.717	–
283 K, x1 = 0.000163	999.735	–
283 K, x1 = 0.000181	999.724	–
283 K, x1 = 0.000208	999.73	–
283 K, x1 = 0.000234	999.729	–
283 K, x1 = 0.000248	999.744	–
283 K, x1 = 0.000273	999.743	–
283 K, x1 = 0.000286	999.744	–
283 K, x1 = 0.000302	999.732	–
283 K, x1 = 0.000319	999.749	–
283 K, x1 = 0.000341	999.737	–
283 K, x1 = 0.000384	999.728	–
283 K, x1 = 0.000407	999.721	–
283 K, x1 = 0.000428	999.712	–
283 K, x1 = 0.0027	–	1448.4
283 K, x1 = 0.003	–	1448.5
283 K, x1 = 0.0048	–	1448.8
283 K, x1 = 0.0074	–	1449.3
283 K, x1 = 0.0094	–	1449.7
283 K, x1 = 0.0109	–	1449.9
283 K, x1 = 0.0129	–	1450.2
283 K, x1 = 0.0145	–	1450.5
283 K, x1 = 0.0163	–	1450.8
283 K, x1 = 0.0181	–	1451.2
283 K, x1 = 0.0208	–	1451.7
283 K, x1 = 0.0234	–	1452
283 K, x1 = 0.0248	–	1452.2
283 K, x1 = 0.0273	–	1452.6
283 K, x1 = 0.0286	–	1452.7
283 K, x1 = 0.0302	–	1452.8
283 K, x1 = 0.0319	–	1453.1
283 K, x1 = 0.0341	–	1453.5
283 K, x1 = 0.0384	–	1453.5
283 K, x1 = 0.0407	–	1453.7
283 K, x1 = 0.0428	–	1453.7
288 K, x1 = 2.7e-05	999.099	–
288 K, x1 = 3e-05	999.118	–
288 K, x1 = 4.8e-05	999.119	–
288 K, x1 = 7.4e-05	999.115	–
288 K, x1 = 9.4e-05	999.109	–
288 K, x1 = 0.000109	999.114	–
288 K, x1 = 0.000129	999.12	–
288 K, x1 = 0.000145	999.116	–
288 K, x1 = 0.000163	999.133	–
288 K, x1 = 0.000181	999.119	–
288 K, x1 = 0.000208	999.122	–
288 K, x1 = 0.000234	999.12	–
288 K, x1 = 0.000248	999.133	–
288 K, x1 = 0.000273	999.127	–
288 K, x1 = 0.000286	999.125	–
288 K, x1 = 0.000302	999.113	–
288 K, x1 = 0.000319	999.128	–
288 K, x1 = 0.000341	999.116	–
288 K, x1 = 0.000384	999.108	–
288 K, x1 = 0.000407	999.096	–
288 K, x1 = 0.000428	999.082	–
288 K, x1 = 0.0027	–	1466.7
288 K, x1 = 0.003	–	1466.8
288 K, x1 = 0.0048	–	1467.1
288 K, x1 = 0.0074	–	1467.6
288 K, x1 = 0.0094	–	1467.9
288 K, x1 = 0.0109	–	1468.1
288 K, x1 = 0.0129	–	1468.4
288 K, x1 = 0.0145	–	1468.6
288 K, x1 = 0.0163	–	1468.9
288 K, x1 = 0.0181	–	1469.2
288 K, x1 = 0.0208	–	1469.7
288 K, x1 = 0.0234	–	1470
288 K, x1 = 0.0248	–	1470.2
288 K, x1 = 0.0273	–	1470.5
288 K, x1 = 0.0286	–	1470.6
288 K, x1 = 0.0302	–	1470.7
288 K, x1 = 0.0319	–	1470.9
288 K, x1 = 0.0341	–	1471
288 K, x1 = 0.0384	–	1471
288 K, x1 = 0.0407	–	1471.2
288 K, x1 = 0.0428	–	1471.2
293 K, x1 = 2.7e-05	998.213	–
293 K, x1 = 3e-05	998.232	–
293 K, x1 = 4.8e-05	998.233	–
293 K, x1 = 7.4e-05	998.224	–
293 K, x1 = 9.4e-05	998.217	–
293 K, x1 = 0.000109	998.222	–
293 K, x1 = 0.000129	998.227	–
293 K, x1 = 0.000145	998.219	–
293 K, x1 = 0.000163	998.236	–
293 K, x1 = 0.000181	998.221	–
293 K, x1 = 0.000208	998.22	–
293 K, x1 = 0.000234	998.218	–
293 K, x1 = 0.000248	998.227	–
293 K, x1 = 0.000273	998.218	–
293 K, x1 = 0.000286	998.214	–
293 K, x1 = 0.000302	998.2	–
293 K, x1 = 0.000319	998.213	–
293 K, x1 = 0.000341	998.199	–
293 K, x1 = 0.000384	998.191	–
293 K, x1 = 0.000407	998.175	–
293 K, x1 = 0.000428	998.16	–
293 K, x1 = 0.0027	–	1482.9
293 K, x1 = 0.003	–	1483
293 K, x1 = 0.0048	–	1483.3
293 K, x1 = 0.0074	–	1483.7
293 K, x1 = 0.0094	–	1484
293 K, x1 = 0.0109	–	1484.2
293 K, x1 = 0.0129	–	1484.5
293 K, x1 = 0.0145	–	1484.7
293 K, x1 = 0.0163	–	1485
293 K, x1 = 0.0181	–	1485.2
293 K, x1 = 0.0208	–	1485.6
293 K, x1 = 0.0234	–	1485.9
293 K, x1 = 0.0248	–	1486
293 K, x1 = 0.0273	–	1486.3
293 K, x1 = 0.0286	–	1486.4
293 K, x1 = 0.0302	–	1486.5
293 K, x1 = 0.0319	–	1486.6
293 K, x1 = 0.0341	–	1486.7
293 K, x1 = 0.0384	–	1486.7
293 K, x1 = 0.0407	–	1486.9
293 K, x1 = 0.0428	–	1486.9
298 K, x1 = 0.0027	–	1497.1
298 K, x1 = 0.003	–	1497.2
298 K, x1 = 0.0048	–	1497.4
298 K, x1 = 0.0074	–	1497.8
298 K, x1 = 0.0094	–	1498.1
298 K, x1 = 0.0109	–	1498.3
298 K, x1 = 0.0129	–	1498.5
298 K, x1 = 0.0145	–	1498.7
298 K, x1 = 0.0163	–	1499
298 K, x1 = 0.0181	–	1499.2
298 K, x1 = 0.0208	–	1499.6
298 K, x1 = 0.0234	–	1499.8
298 K, x1 = 0.0248	–	1500
298 K, x1 = 0.0273	–	1500.2
298 K, x1 = 0.0286	–	1500.3
298 K, x1 = 0.0302	–	1500.3
298 K, x1 = 0.0319	–	1500.5
298 K, x1 = 0.0341	–	1500.5
298 K, x1 = 0.0384	–	1500.5
298 K, x1 = 0.0407	–	1500.7
